In patent US9918983B2, “Suicidal LSD1 inhibitors targeting SOX2-expressing cancer cells” (THE BOARD OF REGENTS OF THE NEVADA SYSTEM OF HIGHER …, priority 2013, dated 2018):
pIC50: −log10 of the molar value.

Assays:
BT-549 cells = assay: Cell growth/viability (MTT, microscopy); format: cell-based, human; settings: BT549 cells, 50 μM, 30 hours
Method: (§1) Lung, breast, ovarian, and other carcinoma cells were either obtained from American Type Culture Collection (ATCC) or from the DTP and DCTD Tumor Repository of National Cancer Institute (the NCI-60 cancer cell line panel), operated by Charles River Laboratory, Inc., as listed in Table 1. They were cultured according to instructions and treated with various concentrations of LSD1 inhibitors for 30-36 hours for mRNA analysis by quantitative real time RT-PCR or for 30-48 hours for protein analysis and the cell viability assays using Western blotting or microscopy and MTT assays as described previously (Wang, J., et al. (2011) Cancer Research 71, 7238-7249).
(§2) Alternatively, cell viability assays were conducted as previously described (Wang, J., et al. (2011) Cancer Research 71, 7238-7249). For the MTT assay, cells were seeded onto 96-well culture plates with a density of 2000-5000 cells/well, and incubated with CBB1003 or CBB1007 at various concentrations from 1 to 100 μM for 30-48 hours, depending cell growth rate. Dimethylsulfoxide (DMSO) was used as a solvent control. MTT was added to a final concentration of 0.5 mg/mL and cells were re-incubated for 4 hours. After removing the medium, 200 μL DMSO was added to dissolve formazan, followed by incubation for 10 minutes, and absorbance was measured at 490 nm by a Bio Red microplate reader. All assays were performed in triplicates for each concentration. The cell viability rate was calculated as the relative percentage of MTT absorption as follows: % cell viability=(mean experimental absorbance/mean control absorbance)×100.

MCF7 cells = assay: Cell growth/viability (MTT, microscopy); format: cell-based, human; settings: 50 μM, 30 hours
Method: as §1, §2

SKOV-3 cells = assay: Cell growth/viability (MTT, microscopy); format: cell-based, human; settings: 50 μM, 30 hours
Method: as §1, §2

SK-BR-3 cells = assay: Cell growth/viability (MTT, microscopy); format: cell-based, human; settings: 50 μM, 30 hours
Method: as §1, §2

HS38.T cells = assay: Cell growth/viability (MTT, microscopy); format: cell-based, human; settings: 50 μM, 30 hours
Method: as §1, §2

IGROV-1 cells = assay: Cell growth/viability (MTT, microscopy); format: cell-based, human; settings: 50 μM, 30 hours
Method: as §1, §2

TP63 and KRT6A [1] = assay: TP63 and KRT6A mRNA by real-time RT-PCR in NCI-H520 cells; format: cell-based, human; settings: 50 μM, 30 hours
Method: (§3) Total RNA was extracted using TRIZOL reagent (TaKaRa) and complementary DNA was generated according to instructions in the PrimeScript 1st strand cDNA Synthesis Kit (TaKaRa) as described previously (Wang, J., et al. (2011) Cancer Research 71, 7238-7249). The cDNAs were diluted to 1/20 and 1 μL of each diluted sample was used as template for each sample. Real-time quantitative PCR was performed on an ABI Prism 7300 sequence detection system (Applied Biosystems) using SYBR Green (TaKaRa) according to the manufacturer's instructions. PCR amplification of the housekeeping gene β-Actin was performed as a control. Experiments for specific silencing or induction of gene expression were repeated at least three times. The real-time PCR primers of human genes are described in Table 3 above.
(§4) Left panels: lung carcinoma NCI-H520, A549, and H1299 cells were either treated with 50 μM CBB1003 for 30 hours or were transfected with Luc, LSD1, or Sox2 specific siRNAs for 48 hours as indicated. […] The statistical differences between experimental and control groups were analyzed by one-way ANOVA (*: p<0.05 and **: p<0.01). Right panels: the ablation efficiency of LSD1 and Sox2 siRNAs was examined.

PA-1 cells [2] = assay: Cell growth/viability (MTT, microscopy); format: cell-based, human
Method: as §1, §2
(§5) Table 8 below lists activity of CBB3001 (compound 10) in Sox2-negative (ES-2) and Sox2-expressing (PA-1 and T47D) cancer cells determined in a cell-based assay as described herein (see also FIG. 3A-C).

TP63 and KRT6A [3] = assay: TP63 and KRT6A mRNA by real-time RT-PCR in A549 cells; format: cell-based, human; settings: 50 μM, 30 hours
Method: as §3, §4

Sox2 = Sox2 protein level by western blotting in carcinoma cells; format: cell-based, human; design: dose or concentration left out as unconfirmed; settings: indicated carcinoma cells, 30 hr
Text: Log-phase growing cancer cells were directly lysed in a buffer containing 0.5% SDS. Proteins in the lysates were equalized and analyzed by Western blotting using antibodies against Sox2, LSD1, H3K4Me1, H3K4Me2, Oct4, and other proteins as described previously or in the figure descriptions (Wang, J., et al. (2011) Cancer Research 71, 7238-7249). For immunohistochemical staining, rabbit monoclonal anti-LSD1 (clone C69G12, cat. #2184) and anti-Sox2 (clone D6D9, cat. #3579) antibodies were obtained from Cell Signaling. Rabbit anti-Sox2 polyclonal antibodies were raised using the purified GST-Sox2 fusion protein as the antigen.
Referring to FIG. 11A, inactivation of LSD1 by LSD1 inhibitors or siRNAs caused the downregulation of Sox2. The indicated carcinoma cells were treated with […] of the LSD1 inhibitors CBB1007 and CBB1003 for 30 hr or with 50 nM of Luc or LSD1 siRNAs for 60 hr. The protein levels of LSD1, Sox2, Lin28, CUL1, and histone H3 were analyzed by western blotting.

ES-2 cells = assay: Cell growth/viability (MTT, microscopy); format: cell-based, human
Method: as §1
as §2, with “For the MTT assay, cells were seeded onto 96-well culture plates with a density of 2000-5000 cells/well, and incubated with CBB1003 or CBB1007 at various concentrations from 1 to 100 μM for 30-48 hours, depending cell growth rate.” left out
as §5

G401 cells = assay: Cell growth/viability (MTT, microscopy); format: cell-based, human; settings: 50 μM, 30 hours
Method: as §1
(§6) Alternatively, cell viability assays were conducted as previously described (Wang, J., et al. (2011) Cancer Research 71, 7238-7249). […] After removing the medium, 200 μL DMSO was added to dissolve formazan, followed by incubation for 10 minutes, and absorbance was measured at 490 nm by a Bio Red microplate reader. […] The cell viability rate was calculated as the relative percentage of MTT absorption as follows: % cell viability=(mean experimental absorbance/mean control absorbance)×100.
Referring to FIG. 10B, Sox2-expressing myelogenous leukemia and rhabdoid tumor cells were also sensitive to LSD1 inhibitors. […] The statistical differences between compound treated and control groups were analyzed by One-way ANOVA. *: p<0.05 and **: p<0.01.

T47D cells = assay: Cell growth/viability (MTT, microscopy); format: cell-based; settings: Homo sapiens; Sox2-expressing T47D cancer cells
Method: as §1, §6, §5

LSD1 = biological target: T1, LSD1 (Homo sapiens, UniProt O60341); assay: LSD1 activity (LSD1 IC50, Table 7, FIG. 2); format: cell-based
T1 construct: LSD1 activity determined in a cell-based assay as described herein; endogenous in cells
Method: For a typical deacetylation assay, 1 μg rHDAC1 or 1 μg immunoprecipitated endogenous HDAC1-protein A complexes (from two 10-cm dishes) was incubated with 0.4 μg H4K16ac peptide in the presence or absence of 50 μM CBB1007 or 2 μM MS-275 at 30° C. for 1 h. The percentages of deacetylated products were analyzed by mass spectrometry, and the data were analyzed by GraphPad Prism (version 5) software. The reaction products were analyzed by mass spectrometry to separate the peptide substrate (H4K16ac) and the product (H4K16), as previously described (Wang, J., et al. (2011) Cancer Research 71, 7238-7249). For a typical demethylation assay, 0.4 μg H3K4me2 substrate peptide was incubated individually with 1 μg recombinant LSD1 (rLSD1) or 1 μg immunoprecipitated LSD1-protein A complex in the presence or absence of 50 μM CBB1007 or 2 μM MS-275 at 30° C. for 1 h. The reaction products were analyzed by mass spectrometry to separate the products (H3K4me1 and H3K4) from the substrate (H3K4me2), as previously described (Wang, J., et al. (2011) Cancer Research 71, 7238-7249).
Table 7 below lists specific compounds and LSD1 activity determined in a cell-based assay as described herein (see also FIGS. 2A and 2B).

OCT4, SOX2, FOXA2, BMP2 [4] = assay: Expression of pluripotency and differentiation genes in F9 cells; format: cell-based, mouse
Method: (§8) Alternatively, total RNA was extracted with the TRIzol reagent (Invitrogen), and cDNA was generated using a cloned avian myeloblastosis virus first-strand cDNA synthesis kit (TaKaRa). The mRNA levels of the target genes were quantified by realtime PCR using SYBR green (TaKaRa) in an ABI Prism 7300 real-time PCR system (Applied Biosystems). […] To synchronize PA-1 and F9 cells at the G1/S phase transition, cells were treated with 2.5 mM thymidine for 12 h, released into fresh medium for 6 h, and blocked again with 2.5 mM thymidine for an additional 12 h. The cell cycle arrest was analyzed by FACS. For differentiation, F9 and PA-1 cells were seeded in 6-well plates at a density of 1×10^4 cells per well and supplemented with 5 μM RA for 3 days. Cells were then recultured in fresh medium without RA for another 2 days, and the cell cycle was analyzed on a BD FACSCalibur cell sorter using the CellQuest program (Becton, Dickinson, Mountain View, Calif.). The percentages of cells in G1, S, and G2/M phases were determined by the use of ModFit LT software.

PA-1 cells [5] = assay: Cell cycle analysis by FACS in PA-1 cells; format: cell-based, human; settings: 5 μM RA for 3 days
Method: (§7) The fluorescence-activated cell sorting (FACS) and 3-(4,5-dimethyl-2-thiazolyl)-2,5-diphenyl-2H-tetrazolium bromide (MTT) assays were conducted as described previously (Lan, R., et al. (2012) Lab. Invest. 92, 1503-1514). To synchronize PA-1 and F9 cells at the G1/S phase transition, cells were treated with 2.5 mM thymidine for 12 h, released into fresh medium for 6 h, and blocked again with 2.5 mM thymidine for an additional 12 h. The cell cycle arrest was analyzed by FACS. For differentiation, F9 and PA-1 cells were seeded in 6-well plates at a density of 1×10^4 cells per well and supplemented with 5 μM RA for 3 days. Cells were then recultured in fresh medium without RA for another 2 days, and the cell cycle was analyzed on a BD FACSCalibur cell sorter using the CellQuest program (Becton, Dickinson, Mountain View, Calif.). The percentages of cells in G1, S, and G2/M phases were determined by the use of ModFit LT software.

OCT4, SOX2, FOXA2, BMP2 [6] = assay: Expression of pluripotency and differentiation genes in PA-1 cells; format: cell-based, human
Method: as §8

F9 cells = assay: Cell cycle analysis by FACS in F9 cells; format: cell-based, mouse; settings: 5 μM RA for 3 days
Method: as §7

**Q.** Which results are given for `N=C(N)c1ccc(C(=O)N2CCN(C(=O)c3cc(CN4CCN(C(=N)N)CC4)cc([N+](=O)[O-])c3)CC2)cc1` [CBB1003]?
**A.** cell growth (BT-549 cells): not sensitive; cell growth (MCF7 cells): sensitive; cell growth (SKOV-3 cells): sensitive; cell growth (SK-BR-3 cells): not sensitive; cell growth (HS38.T cells): not sensitive; cell growth (IGROV-1 cells): sensitive; mRNA levels of TP63 and KRT6A (TP63 and KRT6A [1]): down-regulated; cell growth (PA-1 cells [2]; PA-1 cells, 50 μM, 30 hours): sensitive; mRNA levels of TP63 and KRT6A (TP63 and KRT6A [3]): down-regulated; Sox2 protein level (Sox2): downregulation; cell growth (ES-2 cells; ES-2 cells, 50 μM, 30 hours): not sensitive; cell growth (G401 cells): inhibited

**Q.** `CC(C)(C)OC(=O)N[C@@H]1C[C@H]1c1ccc(OC(=O)OC(C)(C)C)cc1` [Compound 10, Tert-Butyl ((1R,2S)-2-(4-((Tert-Butoxycarbonyl)Oxy)Phenyl)Cyclopropyl)Carbamate] was tested. Which pIC50 (T47D cells) did it give?
**A.** 4.66

**Q.** And the pIC50 (PA-1 cells [2]; Homo sapiens, Sox2-expressing PA-1 cancer cells)?
**A.** 4.82

**Q.** What about the pIC50 (LSD1) of the same molecule?
**A.** 4.67

**Q.** What about the pIC50 (ES-2 cells; Homo sapiens, Sox2-negative ES-2 cancer cells) of the same molecule?
**A.** 3.51

**Q.** Which “OCT4 and SOX2 levels” value (OCT4, SOX2, FOXA2, BMP2 [4]) does the source give for `CC1=C(/C=C/C(C)=C/C=C/C(C)=C/C(=O)O)C(C)(C)CCC1` [RA, all-trans-retinoic acid] here?
**A.** reduction

**Q.** What about the “genes for differentiation, such as FOXA2 and BMP2” value (OCT4, SOX2, FOXA2, BMP2 [4]) of the same molecule?
**A.** induction

**Q.** What about the cell cycle effect (PA-1 cells [5]) of the same molecule?
**A.** G1 cell cycle arrest

**Q.** What about the “OCT4 and SOX2 levels” value (OCT4, SOX2, FOXA2, BMP2 [6]) of the same molecule?
**A.** reduction

**Q.** And the “genes for differentiation, such as FOXA2 and BMP2” value (OCT4, SOX2, FOXA2, BMP2 [6])?
**A.** induction

**Q.** What about the cell cycle effect (F9 cells) of the same molecule?
**A.** G1 cell cycle arrest
